Results reported in patent US20120123760A1, “METHOD FOR DESIGNING AN APTAMER” (Technology Innovations, LLC, priority 2010, published 2012).

Columns and labels:
[1] = Fluorescence assay of 6FAM-labelled aptamer bound to DPPC alone liposomes (control without PS); format: binding; conditions: FIG. 8 right panel
Excerpt: (§1) Two of the top-ranked 6-mer DNA designed aptamers targeting PS were chosen for experimental investigations. Both sequences containing fluorescence tags (6FAM is on the 3′ end of the DNA sequence) were obtained from Integrated DNA Technologies, Commercial Park, Coralville Iowa, USA. 96 well assay plates for fluorescence assays using FLUOstar OPTIMA (BMG Labtech GmbH, Offenburg, Germany) were from Corning Inc., New York, USA. Two lipids, 1,2-dipalmitoyl-sn-glycero-3-phosphatidylcholine (DPPC) and 1,2-dipalmitoyl-sn-glycero-3-phospho-L-serine (sodium salt) (DPPS) in chloroform stock and cholesterol (powder) were obtained from Avanti Polar Lipids (Alabaster, Ala., USA). They were used without further purification.
(§2) Two liposomes were prepared for studying binding affinity and specificity. One uses DPPC and DPPS at a 10:1 DPPC/DPPS molar ratio and the second one uses DPPC alone. […] 100 μL from this final solution was loaded into each of the 96 wells on the fluorescence plate to measure fluorescence of the samples. […]
(§3) Both sequences containing fluorescence tags (6FAM is on the 3′ end of the DNA sequence) were obtained from Integrated DNA Technologies, Commercial Park, Coralville Iowa, USA. 96 well assay plates for fluorescence assays using FLUOstar OPTIMA (BMG Labtech GmbH, Offenburg, Germany) were from Corning Inc., New York, USA. […]

[2] = Fluorescence assay of 6FAM-labelled aptamer bound to DPPC+DPPS liposomes; format: binding
Excerpt: as §1, §2, §3

AAAGAC [PS-aptamer II]
fluorescence level from bound DNA aptamer [1]: binds either poorly or not at all
binding affinity (inferred from fluorescence) [2]: relatively better or stronger binding affinity than PS-aptamer I
fluorescence level from bound DNA aptamer ([2]; FIG. 8 left panel, aptamer beyond 0.165 nmol): higher fluorescence level than PS-aptamer I
